For 19 molecules, Ki results are on record in US12637428B2, “Isoquinoline derivatives as SIK2 inhibitors” (Cancer Research Technology Limited, priority 2019, dated 2026).

pKi: −log10 of the molar value. Where only a bound is given, the exact number is not on record here.

What all share (assay type): biochemical
Test [1] addresses T1, SIK2 (Homo sapiens, UniProt Q9H0K1).
T1 construct: purchased Life Technologies
The experiment in a line: SIK2 kinase assay, IMAP fluorescence polarization. The following applies: 50 or 100 μM ATP, average. The method, then:
(§1) SIK2, SIK1, SIK3, Abl, Src and EPHA2 Kinase Assays
(§2) SIK2, SIK1, SIK3, Abl, Src and EPHA2 assays were performed using an IMAP fluorescence polarization assay format (Molecular Devices Inc.). 0.6-13 nM of each kinase (Life Technologies) was incubated for 60 min at room temperature with 100 nM of either FAM-Abltide, FAM-Srctide or FAM-HDAC protein derived peptide (synthesized by Alta Biosciences, Birmingham UK). Assays were carried out in the presence of 50 or 100 μM ATP in either 20 mM Tris buffer (pH 7.2) containing 4 mM MgCl2, 0.2% BSA and 2 mM DTT (SIK2, SIK1, SIK3, Abl, Src); or 20 mM Tris buffer (pH 8.5) containing 20 mM MgCl2, 0.5% BSA, 0.2% Triton and 5 mM DTT (EPHA2). Typically, dose response analyses were performed over concentration ranges from 0.00005-1 μM. Reactions were stopped by adding 2 assay volumes of 0.25% (v/v) IMAP binding reagent in either an 85:15 ratio (SIK2, SIK1, SIK3, Abl, EPHA2) or 30:70 ratio (Src) of IMAP binding buffers A and B (Molecular Devices). After incubation to allow the detection reagents to bind to the phosphorylated peptide, fluorescence polarization was measured on a Tecan Infinite plate reader at excitation (470 nm) and emission (530 nm) wavelengths. Inhibition was calculated using no inhibitor and no enzyme controls as 0 and 100% inhibition, respectively.
(§3) Table 3 provides details of the inhibitory constant (nM) of compounds of the invention at SIK1, SIK2 and SIK3 and other kinases.
In general terms: In fluorescence polarisation assays a small probe gives low polarisation when free and higher when bound to something large.

Test [2] concerns the target T2, SIK1 (Homo sapiens, UniProt P57059).
T2 construct: purchased Life Technologies
The experiment in a line: SIK1 kinase assay, IMAP fluorescence polarization. The following applies: 50 or 100 μM ATP, average. As to the method:
as §1, §2, §3

Test [3] concerns the target T3, EPHA2 (Homo sapiens, UniProt P29317).
T3 construct: purchased Life Technologies
The test can be described thus: EPHA2 kinase assay, IMAP fluorescence polarization. The following applies: 50 or 100 μM ATP, Tris pH 8.5, average. The method, then: as §1, §2, §3

Test [4] addresses T4, Abl (Homo sapiens, UniProt P00519).
T4 construct: purchased Life Technologies
The experiment in a line: Abl kinase assay, IMAP fluorescence polarization. Particulars: 50 or 100 μM ATP, average. As to the method:
as §1, §2, §3

Test [5] deals with T5, Src (Homo sapiens, UniProt P12931).
T5 construct: purchased Life Technologies
The experiment in a line: Src kinase assay, IMAP fluorescence polarization. Particulars: 50 or 100 μM ATP, average. The method, then: as §1, §2, §3

Test [6] has as its target T6, SIK3 (Homo sapiens, UniProt Q9Y2K2).
T6 construct: purchased Life Technologies
The experiment in a line: SIK3 kinase assay, IMAP fluorescence polarization. The following applies: 50 or 100 μM ATP, average. As to the method: as §1, §2, §3

T1 sequence (Q9H0K1 whole entry): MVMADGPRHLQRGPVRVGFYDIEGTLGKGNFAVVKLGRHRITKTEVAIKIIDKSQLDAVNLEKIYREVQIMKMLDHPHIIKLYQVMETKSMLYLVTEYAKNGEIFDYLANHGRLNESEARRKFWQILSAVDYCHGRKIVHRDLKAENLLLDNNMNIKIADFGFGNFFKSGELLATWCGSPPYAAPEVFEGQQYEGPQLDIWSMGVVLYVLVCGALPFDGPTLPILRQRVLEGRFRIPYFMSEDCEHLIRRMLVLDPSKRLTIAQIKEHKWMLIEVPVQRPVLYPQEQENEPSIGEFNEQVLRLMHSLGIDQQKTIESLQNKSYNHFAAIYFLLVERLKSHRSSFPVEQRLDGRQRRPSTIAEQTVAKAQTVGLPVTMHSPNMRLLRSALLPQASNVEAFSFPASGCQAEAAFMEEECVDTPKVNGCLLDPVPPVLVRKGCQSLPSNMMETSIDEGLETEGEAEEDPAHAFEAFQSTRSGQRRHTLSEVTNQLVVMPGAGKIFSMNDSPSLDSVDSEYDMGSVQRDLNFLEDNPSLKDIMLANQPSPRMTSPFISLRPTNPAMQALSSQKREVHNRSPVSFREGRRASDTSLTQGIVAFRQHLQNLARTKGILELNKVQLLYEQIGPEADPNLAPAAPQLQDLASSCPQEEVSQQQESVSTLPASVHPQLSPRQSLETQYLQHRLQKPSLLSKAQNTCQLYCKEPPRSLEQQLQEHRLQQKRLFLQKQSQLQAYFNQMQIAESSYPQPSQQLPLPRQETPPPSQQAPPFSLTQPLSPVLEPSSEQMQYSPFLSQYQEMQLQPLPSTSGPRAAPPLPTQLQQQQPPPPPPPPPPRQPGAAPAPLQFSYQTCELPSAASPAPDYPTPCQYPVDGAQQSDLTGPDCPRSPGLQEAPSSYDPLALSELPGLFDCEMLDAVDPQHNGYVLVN
T6 sequence (Q9Y2K2 whole entry): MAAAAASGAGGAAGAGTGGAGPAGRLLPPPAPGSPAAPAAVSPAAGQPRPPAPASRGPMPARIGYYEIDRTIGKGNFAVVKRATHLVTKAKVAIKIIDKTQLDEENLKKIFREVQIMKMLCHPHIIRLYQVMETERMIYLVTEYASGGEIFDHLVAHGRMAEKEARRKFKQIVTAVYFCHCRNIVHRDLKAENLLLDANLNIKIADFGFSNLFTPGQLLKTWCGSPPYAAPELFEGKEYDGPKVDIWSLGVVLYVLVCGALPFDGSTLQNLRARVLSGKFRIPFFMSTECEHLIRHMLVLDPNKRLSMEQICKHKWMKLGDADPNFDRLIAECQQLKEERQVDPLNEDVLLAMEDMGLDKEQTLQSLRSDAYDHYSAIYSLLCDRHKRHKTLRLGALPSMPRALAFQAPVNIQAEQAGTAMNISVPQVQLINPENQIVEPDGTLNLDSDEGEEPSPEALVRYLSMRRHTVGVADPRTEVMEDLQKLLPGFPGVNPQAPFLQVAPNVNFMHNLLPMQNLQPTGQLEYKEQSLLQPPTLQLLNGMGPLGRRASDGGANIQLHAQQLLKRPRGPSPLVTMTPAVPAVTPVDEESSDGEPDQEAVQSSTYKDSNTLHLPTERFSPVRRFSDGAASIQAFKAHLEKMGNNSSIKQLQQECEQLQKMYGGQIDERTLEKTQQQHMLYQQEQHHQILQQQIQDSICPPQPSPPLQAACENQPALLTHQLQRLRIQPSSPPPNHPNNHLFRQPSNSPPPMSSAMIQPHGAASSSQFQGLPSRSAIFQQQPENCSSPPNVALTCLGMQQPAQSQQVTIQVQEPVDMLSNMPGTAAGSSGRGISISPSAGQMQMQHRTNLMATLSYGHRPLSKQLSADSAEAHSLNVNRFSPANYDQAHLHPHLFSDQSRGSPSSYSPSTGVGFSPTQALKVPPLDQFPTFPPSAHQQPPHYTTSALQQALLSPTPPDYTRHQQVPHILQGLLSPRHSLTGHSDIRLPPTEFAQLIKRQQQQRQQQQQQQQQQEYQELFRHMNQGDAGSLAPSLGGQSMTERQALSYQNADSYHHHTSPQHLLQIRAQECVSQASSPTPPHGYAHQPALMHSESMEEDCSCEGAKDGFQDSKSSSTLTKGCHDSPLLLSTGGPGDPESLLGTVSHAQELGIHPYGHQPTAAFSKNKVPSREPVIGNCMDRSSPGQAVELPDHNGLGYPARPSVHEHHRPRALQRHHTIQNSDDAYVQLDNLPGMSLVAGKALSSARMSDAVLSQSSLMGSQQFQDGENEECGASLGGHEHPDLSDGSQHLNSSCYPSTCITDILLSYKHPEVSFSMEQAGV
T4 sequence (P00519 whole entry): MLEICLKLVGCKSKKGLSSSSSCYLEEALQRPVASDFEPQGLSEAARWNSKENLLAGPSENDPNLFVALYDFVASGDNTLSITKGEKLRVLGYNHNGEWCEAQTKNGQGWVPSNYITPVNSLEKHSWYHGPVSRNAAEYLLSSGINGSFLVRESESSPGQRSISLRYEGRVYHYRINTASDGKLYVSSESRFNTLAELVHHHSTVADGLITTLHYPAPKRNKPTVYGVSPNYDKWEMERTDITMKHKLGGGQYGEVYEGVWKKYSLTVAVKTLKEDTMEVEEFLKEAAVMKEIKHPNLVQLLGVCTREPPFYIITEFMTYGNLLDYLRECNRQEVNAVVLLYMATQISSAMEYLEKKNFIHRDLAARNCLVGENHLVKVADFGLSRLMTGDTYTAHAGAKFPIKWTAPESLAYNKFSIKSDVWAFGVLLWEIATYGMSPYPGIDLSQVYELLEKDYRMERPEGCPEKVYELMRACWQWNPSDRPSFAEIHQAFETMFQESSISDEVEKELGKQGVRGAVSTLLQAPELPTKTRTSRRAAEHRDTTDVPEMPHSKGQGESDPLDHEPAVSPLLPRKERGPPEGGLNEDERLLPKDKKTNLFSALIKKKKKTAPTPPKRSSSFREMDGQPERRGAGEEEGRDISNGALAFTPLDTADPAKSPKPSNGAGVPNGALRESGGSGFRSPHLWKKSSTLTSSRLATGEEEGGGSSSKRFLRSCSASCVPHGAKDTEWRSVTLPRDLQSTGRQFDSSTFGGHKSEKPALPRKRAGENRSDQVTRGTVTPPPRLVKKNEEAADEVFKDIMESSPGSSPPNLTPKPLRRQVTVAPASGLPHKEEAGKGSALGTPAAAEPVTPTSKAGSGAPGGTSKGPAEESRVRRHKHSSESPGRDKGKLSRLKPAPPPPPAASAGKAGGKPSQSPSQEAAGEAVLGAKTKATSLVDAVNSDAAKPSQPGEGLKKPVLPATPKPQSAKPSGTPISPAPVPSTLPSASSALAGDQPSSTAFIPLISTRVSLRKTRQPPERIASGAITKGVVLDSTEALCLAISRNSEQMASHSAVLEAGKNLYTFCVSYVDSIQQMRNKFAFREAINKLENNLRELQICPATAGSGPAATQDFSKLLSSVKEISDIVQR
T2 sequence (P57059 whole entry): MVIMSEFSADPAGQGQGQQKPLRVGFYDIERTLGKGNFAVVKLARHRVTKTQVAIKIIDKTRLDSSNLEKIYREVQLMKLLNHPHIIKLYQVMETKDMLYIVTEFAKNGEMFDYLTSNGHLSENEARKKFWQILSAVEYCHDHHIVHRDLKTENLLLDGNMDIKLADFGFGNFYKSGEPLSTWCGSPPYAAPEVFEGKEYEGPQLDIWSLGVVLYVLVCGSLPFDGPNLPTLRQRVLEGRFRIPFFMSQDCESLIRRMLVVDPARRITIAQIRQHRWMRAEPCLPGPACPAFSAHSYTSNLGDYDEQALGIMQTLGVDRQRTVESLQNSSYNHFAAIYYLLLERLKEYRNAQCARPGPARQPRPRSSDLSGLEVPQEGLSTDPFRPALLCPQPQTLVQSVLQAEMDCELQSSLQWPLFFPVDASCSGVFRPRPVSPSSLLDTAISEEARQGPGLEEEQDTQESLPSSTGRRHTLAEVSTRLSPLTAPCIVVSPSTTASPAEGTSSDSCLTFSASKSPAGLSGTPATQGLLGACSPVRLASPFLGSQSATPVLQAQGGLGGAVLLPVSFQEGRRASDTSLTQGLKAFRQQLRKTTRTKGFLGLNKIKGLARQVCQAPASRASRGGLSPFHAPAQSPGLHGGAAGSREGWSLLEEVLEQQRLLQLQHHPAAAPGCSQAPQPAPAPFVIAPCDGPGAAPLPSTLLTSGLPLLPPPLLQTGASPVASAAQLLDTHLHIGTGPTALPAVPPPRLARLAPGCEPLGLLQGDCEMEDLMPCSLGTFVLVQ
T5 sequence (P12931 whole entry): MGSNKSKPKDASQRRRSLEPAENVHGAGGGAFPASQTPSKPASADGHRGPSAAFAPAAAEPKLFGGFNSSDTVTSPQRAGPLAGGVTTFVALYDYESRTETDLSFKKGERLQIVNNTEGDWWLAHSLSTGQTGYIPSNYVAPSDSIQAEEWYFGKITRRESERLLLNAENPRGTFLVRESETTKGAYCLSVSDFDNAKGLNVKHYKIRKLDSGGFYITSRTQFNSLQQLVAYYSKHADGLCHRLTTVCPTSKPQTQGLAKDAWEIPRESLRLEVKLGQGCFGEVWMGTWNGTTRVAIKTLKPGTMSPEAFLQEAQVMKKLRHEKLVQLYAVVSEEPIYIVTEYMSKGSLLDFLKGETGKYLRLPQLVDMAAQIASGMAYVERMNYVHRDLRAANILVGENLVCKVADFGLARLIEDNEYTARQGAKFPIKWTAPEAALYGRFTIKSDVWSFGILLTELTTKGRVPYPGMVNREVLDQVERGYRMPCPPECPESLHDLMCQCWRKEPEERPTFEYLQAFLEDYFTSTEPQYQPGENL

For the molecule `Cc1cccc(F)c1-c1ccc2c(C(=O)NC3CN(C)C3)c(N)ncc2c1` [Example 89, 3-Amino-7-(2-fluoro-6-methyl-phenyl)-N-(1-methylazetidin-3-yl)isoquinoline-4-carboxamide], the pKi in test [1] was 8.27; in test [2], 7.27; in test [3], 5.73; in test [4], 7.08; in test [5], 5.98; in test [6], 6.89.
With `Cc1cccc(F)c1-c1cc(N[C@H]2CC[C@H](O)CC2)c2cc(N)ncc2c1` [Example 109, 4-[[3-amino-7-(2-fluoro-6-methyl-phenyl)-5-isoquinolyl]amino]cyclo hexanol], the pKi in test [1] is 8.80; in test [2], 8.42; in test [3], under 6.00; in test [4], 7.13; in test [5], 5.48; in test [6], 7.83.
Consider `Cc1cccc(Cl)c1-c1cc(NC2CCN(C)CC2)c2ccncc2c1` [Example 66, 7-(2-chloro-6-methyl-phenyl)-N-(1-methyl-4-piperidyl)isoquinolin-5-amine], for which the pKi in test [1] is 9.19; in test [2], 9.28; in test [3] it was 7.26; in test [4] it was 7.23; in test [5], 6.98; in test [6] it was 8.94.
As to `Cc1cccc(F)c1-c1cc(NC2CNC2)c2cc(N)ncc2c1` [Example 3, N5-(azetidin-3-yl)-7-(2-fluoro-6-methyl-phenyl)isoquinoline-3,5-diamine], the pKi was 9.85 in test [1]; 9.09 in test [2]; 6.06 in test [3]; 7.69 in test [4]; 6.48 in test [5]; 9.19 in test [6].
For the molecule `Cc1cccc(F)c1-c1cc(NCC2CCN(C)CC2)c2cc(N)ncc2c1` [Example 71, 7-(2-fluoro-6-methyl-phenyl)-N5-[(1-methyl-4-piperidyl)methyl] isoquinoline-3,5-diamine], the pKi in test [1] is 9.31; in test [2], 8.93; in test [3], under 6.00; in test [4] it was 7.81; in test [5], 6.83; in test [6], 8.25.
`Cc1cccc(F)c1-c1cc(N[C@H]2CCCCNC2)c2cc(N)ncc2c1` [Example 23, N5-[(3S)-azepan-3-yl]-7-(2-fluoro-6-methyl-phenyl)isoquinoline-3,5-diamine]: the pKi in test [1] is 10.31; in test [2], 9.54; in test [3], 7.61; in test [4], 8.43; in test [5], 7.80; in test [6], 9.77.
Take `Cc1cccc(F)c1-c1cc(NC[C@@H]2CCCN(C)C2)c2cc(N)ncc2c1` [Example 76, 7-(2-fluoro-6-methyl-phenyl)-N5-[[(3S)-1-methyl-3-piperidyl]methyl]isoq uinoline-3,5-diamine]: the pKi is 9.73 in test [1]; 9.29 in test [2]; 7.78 in test [3]; 8.70 in test [4]; 7.90 in test [5]; 8.79 in test [6].
In the case of `CCN1CCC(Nc2cc(-c3c(C)cccc3F)c(F)c3cnc(N)cc23)CC1` [Example 118, N5-(1-Ethyl-4-piperidyl)-8-fluoro-7-(2-fluoro-6-methyl-phenyl)isoquinoline-3,5-diamine], the pKi in test [1] was 8.21; in test [2], 7.99; in test [3], under 5.00; in test [4], under 5.00; in test [5], under 5.00; in test [6], 7.11.
On to `Cc1cccc(F)c1-c1cc(NC2CCN(C)CC2)c2cc(N)ncc2n1` [Example 121, 2-(2-Fluoro-6-methyl-phenyl)-N4-(1-methyl-4-piperidyl)-1,7-naphthyridine-4,6-diamine], for which the pKi is 7.34 in test [1]; 6.75 in test [2]; 5.58 in test [3]; under 5.00 in test [4]; under 5.00 in test [5]; 6.31 in test [6].
As for `Cc1cccc(F)c1-c1cc(NC(=O)C2CNC2)c2cc(N)ncc2c1` [Example 45, N-[3-amino-7-(2-fluoro-6-methyl-phenyl)-5-isoquinolyl] azetidine-3-carboxamide], the pKi in test [1] is 8.26; in test [2], 7.75; in test [3], 6.03; in test [4] it was 7.08; in test [5], 6.05; in test [6], 7.45.
For `Cc1cccc(F)c1-c1cc(NC2CCN(C)CC2)c2cc(N)ncc2c1F` [Example 119, 8-fluoro-7-(2-fluoro-6-methyl-phenyl)-N5-(1-methyl-4-piperidyl)isoquinoline-3,5-diamine], the pKi in test [1] is 8.51; in test [2] it was 8.37; in test [3], under 6.00; in test [4] it was under 6.00; in test [5] it was under 6.00; in test [6] it was 7.60.
Take `Cc1cccc(Cl)c1-c1cc(NC2CCNCC2)c2nc(N)ncc2c1` [Example 137, 6-(2-chloro-6-methyl-phenyl)-N8-(4-piperidyl)quinazoline-2,8-diamine]: the negative logarithm of the Ki (pKi) is 10.16 in test [1]; 9.53 in test [2]; 8.04 in test [3]; 7.65 in test [4]; 7.73 in test [5]; 9.29 in test [6].
In the case of `Cc1cccc(F)c1-c1cc(N2CC[C@@H](O)C2)c2cc(N)ncc2c1` [Example 106, (3R)-1-[3-amino-7-(2-fluoro-6-methyl-phenyl)-5-isoquinolyl]pyrrolidin-3-ol], the negative-log Ki (pKi) in test [1] is 7.71; in test [2], 6.91; in test [3], under 5.00; in test [4], 7.54; in test [5], under 5.00; in test [6], 6.26.
As to `Cc1cccc(F)c1-c1cc(NC[C@@H]2CCCN2C)c2cc(N)ncc2c1` [Example 55, 7-(2-fluoro-6-methyl-phenyl)-N5-[[(2S)-1-methylpyrrolidin-2-yl]methyl] isoquinoline-3,5-diamine], the pKi is 9.66 in test [1]; 9.02 in test [2]; 6.74 in test [3]; 8.04 in test [4]; 7.24 in test [5]; 8.41 in test [6].
Regarding `Cc1cccc(F)c1-c1cc(OC2CCNCC2)c2cc(N)ncc2c1` [Example 46, 7-(2-Fluoro-6-methyl-phenyl)-5-(4-piperidyloxy)isoquinolin-3-amine], the negative logarithm of the Ki (pKi) in test [1] was 10.69; in test [2] it was 9.72; in test [3], 7.41; in test [4], 8.44; in test [5], 7.02; in test [6] it was 9.90.
Take `Cc1cccc(Cl)c1-c1ccc2c(C(=O)N[C@@H]3CCNC3)c(N)ncc2c1` [Example 42, 3-amino-7-(2-chloro-6-methyl-phenyl)-N-[(3R)-pyrrolidin-3-yl]isoquinoline-4-carboxamide]: the pKi was 8.18 in test [1]; 7.77 in test [2]; 6.76 in test [3]; 6.47 in test [4]; 6.70 in test [5]; 7.00 in test [6].
Regarding `Cc1cccc(Cl)c1-c1cc(NC2CCNCC2)c2cc(N)ncc2c1` [Example 30, 7-(2-Chloro-6-methyl-phenyl)-N5-(4-piperidyl)isoquinoline-3,5-diamine], the negative logarithm of the Ki (pKi) in test [1] is 9.48; in test [2], 9.32; in test [3], 7.18; in test [4] it was 7.44; in test [5] it was 7.02; in test [6] it was 8.54.
With `Cc1cccc(F)c1-c1cc(N[C@@H]2CCCCN(C)C2)c2cc(N)ncc2c1` [Example 80, 7-(2-fluoro-6-methyl-phenyl)-N5-[(3R)-1-methylazepan-3-yl]isoquinoline-3,5-diamine], the negative-log Ki (pKi) in test [1] is 9.35; in test [2] it was 9.04; in test [3], under 6.00; in test [4] it was 7.82; in test [5], 7.31; in test [6] it was 8.31.
With `Cc1cccc(F)c1-c1cc(N2CCC[C@H](CN(C)C)C2)c2cc(N)ncc2c1` [Example 60, 5-[(3R)-3-[(dimethylamino)methyl]-1-piperidyl]-7-(2-fluoro-6-methyl-phenyl)isoquinolin-3-amine], the pKi in test [1] is 8.84; in test [2] it was 8.10; in test [3], under 6.00; in test [4] it was 6.65; in test [5] it was 6.10; in test [6], 7.37.

Broadly, the pKi is −log10 of the Ki, conventionally taken in molar units. Read a high pKi as a small Ki.
